Data published in patent publication US20260022142A1, “MACROCYCLIC IMMUNOMODULATORS” (Bristol-Myers Squibb Company, priority 2022, published 2026).
Bridge positions count the residues as written; N and C are the ends. Square brackets hold non-standard residues; d marks the D form. Peptide text beside a SMILES is read from it. * marks the point of attachment. ξ: configuration not given here. Bip = N[C@@H](Cc1ccc(-c2ccccc2)cc1)C(=O)O; Phe(3-Me) = Cc1cccc(C[C@H](N)C(=O)O)c1; Cha = N[C@@H](CC1CCCCC1)C(=O)O; Cit = NC(=O)NCCC[C@H](N)C(=O)O; Thr(3ξ) = CC(O)[C@H](N)C(=O)O; Carboxymethyl = O=C(O)C*; Orn = NCCC[C@H](N)C(=O)O; Aun = NCCCCCCCCCCC(=O)O; Dab = NCC[C@H](N)C(=O)O; Dap = NC[C@H](N)C(=O)O; AEEA = NCCOCCOCC(=O)O

Each molecule was assayed against T1, PD-1/PD-L1 interaction (PE-labeled human PD-L1-Ig binding to Jurkat cell line over-expressing human PD-1) (Homo sapiens, UniProt Q15116) (assay: Jurkat-PD-1 Cell Binding High-Content Screening Assay (CBA)). Conditions: Jurkat cell line over-expressing human PD-1; PE-labeled PD-L1-Ig 20 nM final; read-out: Jurkat hPD1-PDL1 IC50.
T1 construct: expressed in transfected cells; host or cells: Jurkat
Format: cell-based
How it was run: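 Jurkat cells stably over-expressing human PD-1 were seeded in DMEM with 10% fetal calf serum and pre-incubated with compound for 2 h at 37° C. PE-labeled human PD-L1-Ig was then added at 20 nM final for 1 hour, after which cells were fixed with paraformaldehyde, Hoechst-stained and imaged by high-content microscopy.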

T1 sequence (Q15116 25-288): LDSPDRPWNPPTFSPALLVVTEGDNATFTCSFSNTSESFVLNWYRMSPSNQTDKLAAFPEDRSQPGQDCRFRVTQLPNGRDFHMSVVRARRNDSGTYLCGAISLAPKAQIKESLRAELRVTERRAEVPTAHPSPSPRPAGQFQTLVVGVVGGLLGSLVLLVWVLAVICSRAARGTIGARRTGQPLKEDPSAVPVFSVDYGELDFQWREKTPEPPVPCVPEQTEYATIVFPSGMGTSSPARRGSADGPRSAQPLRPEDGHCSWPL

SMILES | IC50
Cc1cccc(C[C@@H]2NC(=O)[C@H](CC(=O)O)NC(=O)[C@H](Cc3ccc(OCC(=O)O)cc3)NC(=O)[C@H](CN)NC(=O)CSC[C@@H](C(=O)N[C@@H](CCN)C(=O)NCCOCCOCC(=O)NCCCCCCCCCCC(=O)O)NC(=O)[C@H](C(C)O)NC(=O)[C@H](C(C)C)NC(=O)[C@H](CC3CCCCC3)NC(=O)[C@H](CCN)NC(=O)[C@@H](CC(C)C)NC(=O)[C@H](CCCN)NC(=O)[C@H](C(C)C)NC(=O)[C@H](Cc3ccc(-c4ccccc4)cc3)NC(=O)[C@H](Cc3ccc(O)cc3)NC2=O)c1 (stereo partly drawn) [Compound 2581] ({CH2CO}-[Dap]Y(Carboxymethyl)D[Phe(3-Me)]Y[Bip]V[Orn][dL][Dab][Cha]V[Thr(3ξ)]C[Dab][AEEA][Aun]-OH; thioether N-14) | 21.4 nM
Cc1cccc(C[C@@H]2NC(=O)[C@H](CC(=O)O)NC(=O)[C@H](Cc3ccc(OCC(=O)O)cc3)NC(=O)[C@H](CN)NC(=O)CSC[C@@H](C(=O)N[C@@H](CCN)C(=O)NCCOCCOCC(=O)NCCCCCCCCCCC(=O)O)NC(=O)[C@H](CCCN)NC(=O)[C@H](C(C)C)NC(=O)[C@H](CC3CCCCC3)NC(=O)[C@H](CCN)NC(=O)[C@@H](CC(C)C)NC(=O)[C@H](CCCN)NC(=O)[C@H](C(C)C)NC(=O)[C@H](Cc3ccc(-c4ccccc4)cc3)NC(=O)[C@H](Cc3ccc(O)cc3)NC2=O)c1 [Compound 2582] ({CH2CO}-[Dap]Y(Carboxymethyl)D[Phe(3-Me)]Y[Bip]V[Orn][dL][Dab][Cha]V[Orn]C[Dab][AEEA][Aun]-OH; thioether N-14) | 9.5 nM
Cc1cccc(C[C@@H]2NC(=O)[C@H](CC(=O)O)NC(=O)[C@H](Cc3ccc(OCC(=O)O)cc3)NC(=O)[C@H](CN)NC(=O)CSC[C@@H](C(=O)N[C@@H](CCN)C(=O)NCCOCCOCC(=O)NCCCCCCCCCCC(=O)O)NC(=O)[C@H](C(C)O)NC(=O)[C@H](Cc3ccc(O)cc3)NC(=O)[C@H](CC3CCCCC3)NC(=O)[C@H](CCN)NC(=O)[C@@H](CC(C)C)NC(=O)[C@H](CCCN)NC(=O)[C@H](CCCNC(N)=O)NC(=O)[C@H](Cc3ccc(-c4ccccc4)cc3)NC(=O)[C@H](C(C)C)NC2=O)c1 (stereo partly drawn) [Compound 2583] ({CH2CO}-[Dap]Y(Carboxymethyl)D[Phe(3-Me)]V[Bip][Cit][Orn][dL][Dab][Cha]Y[Thr(3ξ)]C[Dab][AEEA][Aun]-OH; thioether N-14) | 32.3 nM
Cc1cccc(C[C@@H]2NC(=O)[C@H](CC(=O)O)NC(=O)[C@H](Cc3ccc(OCC(=O)O)cc3)NC(=O)[C@H](CN)NC(=O)CSC[C@@H](C(=O)N[C@@H](CCN)C(=O)NCCOCCOCC(=O)NCCCCCCCCCCC(=O)O)NC(=O)[C@H](CCCN)NC(=O)[C@H](Cc3ccc(O)cc3)NC(=O)[C@H](CC3CCCCC3)NC(=O)[C@H](CCN)NC(=O)[C@@H](CC(C)C)NC(=O)[C@H](CCCN)NC(=O)[C@H](CCCNC(N)=O)NC(=O)[C@H](Cc3ccc(-c4ccccc4)cc3)NC(=O)[C@H](C(C)C)NC2=O)c1 [Compound 2584] ({CH2CO}-[Dap]Y(Carboxymethyl)D[Phe(3-Me)]V[Bip][Cit][Orn][dL][Dab][Cha]Y[Orn]C[Dab][AEEA][Aun]-OH; thioether N-14) | 17.9 nM
Cc1cccc(C[C@@H]2NC(=O)[C@H](CC(=O)O)NC(=O)[C@H](Cc3ccc(OCC(=O)O)cc3)NC(=O)[C@H](CN)NC(=O)CSC[C@@H](C(=O)N[C@@H](CCN)C(=O)NCCOCCOCC(=O)NCCCCCCCCCCC(=O)O)NC(=O)[C@H](C(C)O)NC(=O)[C@H](Cc3ccc(O)cc3)NC(=O)[C@H](CC3CCCCC3)NC(=O)[C@H](CCN)NC(=O)[C@@H](CC(C)C)NC(=O)[C@H](CCCN)NC(=O)[C@H](C(C)C)NC(=O)[C@H](Cc3ccc(-c4ccccc4)cc3)NC(=O)[C@H](C(C)C)NC2=O)c1 (stereo partly drawn) [Compound 2585] ({CH2CO}-[Dap]Y(Carboxymethyl)D[Phe(3-Me)]V[Bip]V[Orn][dL][Dab][Cha]Y[Thr(3ξ)]C[Dab][AEEA][Aun]-OH; thioether N-14) | 27 nM
Cc1cccc(C[C@@H]2NC(=O)[C@H](CC(=O)O)NC(=O)[C@H](Cc3ccc(OCC(=O)O)cc3)NC(=O)[C@H](CN)NC(=O)CSC[C@@H](C(=O)N[C@@H](CCN)C(=O)NCCOCCOCC(=O)NCCCCCCCCCCC(=O)O)NC(=O)[C@H](CCCN)NC(=O)[C@H](Cc3ccc(O)cc3)NC(=O)[C@H](CC3CCCCC3)NC(=O)[C@H](CCN)NC(=O)[C@@H](CC(C)C)NC(=O)[C@H](CCCN)NC(=O)[C@H](C(C)C)NC(=O)[C@H](Cc3ccc(-c4ccccc4)cc3)NC(=O)[C@H](C(C)C)NC2=O)c1 [Compound 2586] ({CH2CO}-[Dap]Y(Carboxymethyl)D[Phe(3-Me)]V[Bip]V[Orn][dL][Dab][Cha]Y[Orn]C[Dab][AEEA][Aun]-OH; thioether N-14) | 22.2 nM
Cc1cccc(C[C@@H]2NC(=O)[C@H](CC(=O)O)NC(=O)[C@H](Cc3ccc(OCC(=O)O)cc3)NC(=O)[C@H](CN)NC(=O)CSC[C@@H](C(=O)N[C@@H](CCN)C(=O)NCCOCCOCC(=O)NCCCCCCCCCCC(=O)O)NC(=O)[C@H](C(C)O)NC(=O)[C@H](C(C)C)NC(=O)[C@H](CC3CCCCC3)NC(=O)[C@H](CCN)NC(=O)[C@@H](CC(C)C)NC(=O)[C@H](CCCN)NC(=O)[C@H](Cc3ccc(O)cc3)NC(=O)[C@H](Cc3ccc(-c4ccccc4)cc3)NC(=O)[C@H](C(C)C)NC2=O)c1 (stereo partly drawn) [Compound 2587] ({CH2CO}-[Dap]Y(Carboxymethyl)D[Phe(3-Me)]V[Bip]Y[Orn][dL][Dab][Cha]V[Thr(3ξ)]C[Dab][AEEA][Aun]-OH; thioether N-14) | 8.8 nM
Cc1cccc(C[C@@H]2NC(=O)[C@H](CC(=O)O)NC(=O)[C@H](Cc3ccc(OCC(=O)O)cc3)NC(=O)[C@H](CN)NC(=O)CSC[C@@H](C(=O)N[C@@H](CCN)C(=O)NCCOCCOCC(=O)NCCCCCCCCCCC(=O)O)NC(=O)[C@H](CCCN)NC(=O)[C@H](C(C)C)NC(=O)[C@H](CC3CCCCC3)NC(=O)[C@H](CCN)NC(=O)[C@@H](CC(C)C)NC(=O)[C@H](CCCN)NC(=O)[C@H](Cc3ccc(O)cc3)NC(=O)[C@H](Cc3ccc(-c4ccccc4)cc3)NC(=O)[C@H](C(C)C)NC2=O)c1 [Compound 2588] ({CH2CO}-[Dap]Y(Carboxymethyl)D[Phe(3-Me)]V[Bip]Y[Orn][dL][Dab][Cha]V[Orn]C[Dab][AEEA][Aun]-OH; thioether N-14) | 5.3 nM
Cc1cccc(C[C@@H]2NC(=O)[C@H](CC(=O)O)NC(=O)[C@H](Cc3ccc(OCC(=O)O)cc3)NC(=O)[C@H](CN)NC(=O)CSC[C@@H](C(=O)N[C@@H](CCCCN)C(=O)NCCCCCCCCCCC(=O)O)NC(=O)[C@H](C(C)O)NC(=O)[C@H](C(C)C)NC(=O)[C@H](CC3CCCCC3)NC(=O)[C@H](CCN)NC(=O)[C@@H](CC(C)C)NC(=O)[C@H](CCCN)NC(=O)[C@H](Cc3ccc(O)cc3)NC(=O)[C@H](Cc3ccc(-c4ccccc4)cc3)NC(=O)[C@H](C(C)C)NC2=O)c1 (stereo partly drawn) [Compound 2589] ({CH2CO}-[Dap]Y(Carboxymethyl)D[Phe(3-Me)]V[Bip]Y[Orn][dL][Dab][Cha]V[Thr(3ξ)]CK[Aun]-OH; thioether N-14) | 13.6 nM
Cc1cccc(C[C@@H]2NC(=O)[C@H](CC(=O)O)NC(=O)[C@H](Cc3ccc(OCC(=O)O)cc3)NC(=O)[C@H](CN)NC(=O)CSC[C@@H](C(=O)N[C@@H](CCCCN)C(=O)NCCCCCCCCCCC(=O)O)NC(=O)[C@H](CCCN)NC(=O)[C@H](C(C)C)NC(=O)[C@H](CC3CCCCC3)NC(=O)[C@H](CCN)NC(=O)[C@@H](CC(C)C)NC(=O)[C@H](CCCN)NC(=O)[C@H](Cc3ccc(O)cc3)NC(=O)[C@H](Cc3ccc(-c4ccccc4)cc3)NC(=O)[C@H](C(C)C)NC2=O)c1 [Compound 2590] ({CH2CO}-[Dap]Y(Carboxymethyl)D[Phe(3-Me)]V[Bip]Y[Orn][dL][Dab][Cha]V[Orn]CK[Aun]-OH; thioether N-14) | 9.5 nM
